pIC50: −log10 of the molar value.
Columns and labels:
[1] = test system: SK-CO-1 cells; test: SK-CO-1 CTG proliferation assay (120 h) (CRC, G12V); type: cell-based; details: Homo sapiens; SK-CO-1 cells (CRC, G12V), CTG 120 h
Summary of the method: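 Compound exposure lasted 120 h in KRAS G12V SK-CO-1 cells seeded overnight at 500 cells/well in 10% FCS EMEM. CellTiter-Glo RLU normalised to DMSO wells gave percent viability, and a four-parameter model fit yielded IC50.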

[2] = test system: KRAS G12D-dependent Ba/F3 cells; test: Ba/F3 proliferation assay, KRAS G12D; type: cell-based; details: Mus musculus, BaF3, 72 h, AlamarBlue
Summary of the method: (§1)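 Cells: murine Ba/F3 transduced with mutant KRAS by retrovirus, selected with 1 μg/mL puromycin, then weaned off IL-3. Compound exposure in duplicate, followed by AlamarBlue viability staining and curve fitting.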

[3] = molecular target: KRAS (G12C)::SOS1 (Homo sapiens (Human), UniProt P01116, C118S/C51S/C80L/G12C); test: KRAS::SOS1 AlphaScreen binding assay, KRAS G12C
Summary of the method: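 KRAS 1-169 (biotinylated avi-tag) with GST-SOS1 564-1049 and 10 µM GDP in PBS/0.1% BSA/0.05% Tween 20: WT and G13D 10 nM each with 10 nM SOS1; G12D 10 nM and G12C 7.5 nM with 5 nM SOS1. After 30 min, glutathione acceptor/streptavidin donor beads were added for 60 min at RT in the dark, then AlphaScreen read; 4-parameter IC50.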

[4] = test system: KRAS G12V-dependent Ba/F3 cells; test: Ba/F3 proliferation assay, KRAS G12V; type: cell-based; details: Mus musculus, BaF3, 72 h, AlamarBlue;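 note: proliferation IC50 in KRAS G12V-dependent Ba/F3 cells read by AlamarBlue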
Summary of the method: as §1

Sequence of KRAS (G12C)::SOS1 (P01116 other isoform, or with tags, fused parts or gaps G12C/C51S/C80L/C118S): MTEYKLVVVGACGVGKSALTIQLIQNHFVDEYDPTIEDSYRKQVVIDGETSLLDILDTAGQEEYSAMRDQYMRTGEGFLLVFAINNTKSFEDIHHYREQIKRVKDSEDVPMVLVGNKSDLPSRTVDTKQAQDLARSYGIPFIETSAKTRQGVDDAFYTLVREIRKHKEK

| SMILES | pIC50 [1] | pIC50 [2] | pIC50 [3] | pIC50 [4] |
| --- | --- | --- | --- | --- |
| C[C@H](Oc1cc(N2CCNCC2)nc(-c2noc3c2CCC[C@@]32CCCc3sc(N)c(C#N)c32)n1)[C@@H]1CCCN1C [II-45] | 5.75 | 7.24 | 8.52 | 6.19 |
| C[C@H](Oc1cc(N2CCC(N(C)C)CC2)nc(-c2noc3c2CCC[C@@]32CCCc3sc(N)c(C#N)c32)n1)[C@@H]1CCCN1C [II-48] | 5.97 | 7.15 | 8.15 | 6.24 |
| [2H]C([2H])([2H])N1C[C@H](F)C[C@H]1[C@H](C)Oc1cc(N2CCN(C)C3(CC3)C2)nc(-c2noc3c2CCC[C@@]32CCCc3sc(N)c(C#N)c32)n1 [II-209] | 5.86 | 7.74 | 8.40 | 6.41 |

The next molecules have a higher pIC50 [1] than those just listed; values first:

| pIC50 [1] | pIC50 [2] | pIC50 [3] | pIC50 [4] | SMILES |
| --- | --- | --- | --- | --- |
| 6.22 | 7.40 | 8.40 | 6.79 | C[C@H](Oc1cc(N2CC[C@@H](N(C)C)C2)nc(-c2noc3c2CCC[C@@]32CCCc3sc(N)c(C#N)c32)n1)[C@@H]1CCCN1C [II-47] |
| 6.40 | 8.52 | 9.00 | 6.78 | [2H]C([2H])([2H])N1C[C@H](F)C[C@H]1[C@H](C)Oc1cc(N2CCNC3(CC3)C2)nc(-c2noc3c2CCC[C@@]32CCCc3sc(N)c(C#N)c32)n1 [II-208] |
